Data from US20240368135A1 (VERTEX PHARMACEUTICALS INCORPORATED, priority 2021, published 2024).
Read-outs that look alike come from different tables or passages of the source.

Target: human NaV 1.8 (Homo sapiens, UniProt Q9Y5Y9)
Assay: E-VIPR assay detecting and measuring NaV inhibition properties
Format: cell-based
Settings: HEK cells expressing truncated human NaV 1.8
Summary of the method: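 HEK cells expressing truncated, fully active human NaV1.8, with KIR2.1 BacMam co-transduction, were loaded with CC2-DMPE/DiSBAC6(3) voltage-sensing dyes for 20 min at room temperature. Compounds were tested in 11-point 3-fold dilutions (300 nM top final), optionally with 25% human serum, under electrical stimulation with FRET read-out.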

[1] = no human serum, read-out: IC50 in the E-VIPR Assay
[2] = in the presence of human serum (compound numbers followed by *), read-out: IC50 in the E-VIPR Assay, performed in the presence of human serum

human NaV 1.8, sequence (Q9Y5Y9 126-399 limits assumed): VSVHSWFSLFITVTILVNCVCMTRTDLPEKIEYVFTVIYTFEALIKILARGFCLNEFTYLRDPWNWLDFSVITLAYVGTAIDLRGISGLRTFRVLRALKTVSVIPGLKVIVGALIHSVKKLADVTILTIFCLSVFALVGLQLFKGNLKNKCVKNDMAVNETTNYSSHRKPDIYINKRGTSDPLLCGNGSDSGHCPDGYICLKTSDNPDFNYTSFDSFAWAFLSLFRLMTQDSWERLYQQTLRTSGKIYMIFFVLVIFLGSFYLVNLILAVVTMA
human NaV 1.8, sequence (Q9Y5Y9 660-890 limits assumed): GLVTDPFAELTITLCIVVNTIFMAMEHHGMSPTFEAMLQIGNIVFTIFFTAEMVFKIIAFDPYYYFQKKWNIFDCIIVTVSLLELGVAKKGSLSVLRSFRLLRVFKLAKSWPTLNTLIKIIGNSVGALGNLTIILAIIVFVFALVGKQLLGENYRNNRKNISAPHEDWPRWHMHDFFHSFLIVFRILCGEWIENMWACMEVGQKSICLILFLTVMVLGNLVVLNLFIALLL
human NaV 1.8, sequence (Q9Y5Y9 1148-1722 limits assumed): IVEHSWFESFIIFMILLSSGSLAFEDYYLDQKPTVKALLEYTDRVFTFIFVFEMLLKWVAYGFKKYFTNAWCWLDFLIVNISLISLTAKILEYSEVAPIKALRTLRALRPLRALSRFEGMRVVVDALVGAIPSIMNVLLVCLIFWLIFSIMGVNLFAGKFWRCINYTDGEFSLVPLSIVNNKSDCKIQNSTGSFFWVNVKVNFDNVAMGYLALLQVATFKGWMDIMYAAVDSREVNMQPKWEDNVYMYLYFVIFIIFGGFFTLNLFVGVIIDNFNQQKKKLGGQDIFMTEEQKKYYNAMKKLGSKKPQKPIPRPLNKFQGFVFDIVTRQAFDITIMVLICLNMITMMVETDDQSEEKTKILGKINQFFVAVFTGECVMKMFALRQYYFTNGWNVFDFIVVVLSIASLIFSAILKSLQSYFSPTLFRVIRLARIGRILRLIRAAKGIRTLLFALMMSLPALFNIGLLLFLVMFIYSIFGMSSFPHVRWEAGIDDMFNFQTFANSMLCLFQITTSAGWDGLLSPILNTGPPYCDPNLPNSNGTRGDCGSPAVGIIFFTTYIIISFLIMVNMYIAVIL

IC50 [1] [nM]	IC50 [2] [nM]	SMILES
≥ 1000		COCCNCc1cc(NC(=O)C2OC(C)(C(F)(F)F)C(C)C2c2ccc(F)c(F)c2OC)ccn1 (stereo not drawn) [Compound 59, 3-(3,4-difluoro-2-methoxy-phenyl)-N-[2-[(2-methoxyethylamino)methyl]-4-pyridyl]-4,5-dimethyl-5-(trifluoromethyl)tetrahydrofuran-2-carboxamide]
< 10		CCOc1c([C@H]2[C@H](C(=O)Nc3ccnc([S@@](C)(=O)=NC)c3)O[C@@](C)(C(F)(F)F)[C@H]2C)ccc(F)c1F (relative stereo) [Compound 12, rel-(2R,3S,4S,5R)—N-(2-(N,S-dimethylsulfonimidoyl)pyridin-4-yl)-3-(2-ethoxy-3,4-difluorophenyl)-4,5-dimethyl-5-(trifluoromethyl)tetrahydrofuran-2-carboxamide]
< 10		COc1c([C@H]2[C@H](C(=O)Nc3ccnc(S(C)(=N)=O)c3)O[C@@](C)(C(F)(F)F)[C@H]2C)ccc(F)c1C (relative stereo) [Compound 151, rel-(2R,3S,4S,5R)-3-(4-fluoro-2-methoxy-3-methylphenyl)-4,5-dimethyl-N-(2-(S-methylsulfonimidoyl)pyridin-4-yl)-5-(trifluoromethyl)tetrahydrofuran-2-carboxamide]
10 to 100		Cc1conc1NC(=O)[C@@H]1O[C@@](C)(C(F)(F)F)[C@@H](C)[C@H]1c1ccc(F)c(F)c1OCCO [Compound 545, (2R,3S,4S,5R)-3-(3,4-difluoro-2-(2-hydroxyethoxy)phenyl)-4,5-dimethyl-N-(4-methylisoxazol-3-yl)-5-(trifluoromethyl)tetrahydrofuran-2-carboxamide]
10 to 100		Cc1cn(C)c(COc2c([C@H]3[C@H](C(=O)Nc4cccnc4)O[C@@](C)(C(F)(F)F)[C@H]3C)ccc(F)c2F)n1 [Compound 650, (2R,3S,4S,5R)-3-(2-((1,4-dimethyl-1H-imidazol-2-yl)methoxy)-3,4-difluorophenyl)-4,5-dimethyl-N-(pyridin-3-yl)-5-(trifluoromethyl)tetrahydrofuran-2-carboxamide]
	100 to 1000	COc1cc(F)ccc1C1CC(C)(C(F)(F)F)OC1C(=O)Nc1ccnc(S(C)(=N)=O)c1 (stereo not drawn) [Compound 715, 3-(4-fluoro-2-methoxy-phenyl)-5-methyl-N-[2-(methylsulfonimidoyl)-4-pyridyl]-5-(trifluoromethyl)tetrahydrofuran-2-carboxamide]
10 to 100		COc1c([C@H]2[C@H](C(=O)Nc3cc(C4(N(C)C)COC4)ncc3F)O[C@@](C)(C(F)(F)F)[C@H]2C)ccc(F)c1F [Compound 363, (2R,3S,4S,5R)-3-(3,4-difluoro-2-methoxyphenyl)-N-(2-(3-(dimethylamino)oxetan-3-yl)-5-fluoropyridin-4-yl)-4,5-dimethyl-5-(trifluoromethyl)tetrahydrofuran-2-carboxamide]
	100 to 1000	COc1c([C@H]2[C@H](C(=O)Nc3ccc4nc[nH]c4c3)O[C@@](C)(C(F)(F)F)[C@H]2C)ccc(F)c1F [Compound 212, (2R,3S,4S,5R)-N-(1H-benzo[d]imidazol-6-yl)-3-(3,4-difluoro-2-methoxyphenyl)-4,5-dimethyl-5-(trifluoromethyl)tetrahydrofuran-2-carboxamide]
10 to 100		Cc1nn(C)cc1NC(=O)[C@@H]1O[C@@](C)(C(F)(F)F)[C@@H](C)[C@H]1c1ccc(F)c(F)c1OCCO [Compound 557, (2R,3S,4S,5R)-3-(3,4-difluoro-2-(2-hydroxyethoxy)phenyl)-N-(1,3-dimethyl-1H-pyrazol-4-yl)-4,5-dimethyl-5-(trifluoromethyl)tetrahydrofuran-2-carboxamide]
10 to 100		COc1c([C@H]2[C@H](C(=O)Nc3cnc(C)n3C)O[C@@](C)(C(F)(F)F)[C@H]2C)ccc(F)c1F [Compound 447, (2R,3S,4S,5R)-3-(3,4-difluoro-2-methoxy-phenyl)-N-(2,3-dimethylimidazol-4-yl)-4,5-dimethyl-5-(trifluoromethyl)tetrahydrofuran-2-carboxamide]
100 to 1000		CC(C)Oc1c([C@@H]2[C@@H](C(=O)Nc3ccnc(S(C)(=N)=O)c3)O[C@](C)(C(F)(F)F)[C@@H]2C)ccc(F)c1F (single isomer, unassigned) [Compound 117]
< 10		CCOc1c([C@H]2[C@H](C(=O)Nc3ccnc(S(C)(=N)=O)c3)O[C@@](C)(C(F)(F)F)[C@H]2C)ccc(F)c1C (single isomer, unassigned) [Compound 128]
10 to 100		COc1cc(NC(=O)[C@@H]2O[C@@](C)(C(F)(F)F)[C@@H](C)[C@H]2c2ccc(F)c(F)c2OCCO)ccn1 [Compound 544, (2R,3S,4S,5R)-3-(3,4-difluoro-2-(2-hydroxyethoxy)phenyl)-N-(2-methoxypyridin-4-yl)-4,5-dimethyl-5-(trifluoromethyl)tetrahydrofuran-2-carboxamide]
< 10		COc1c(C2C(C(=O)Nc3ccnc(C(C)(C)O)c3)OC(C)(C(F)(F)F)C2C)ccc(F)c1F (single isomer, unassigned) [Compound 48, 3-(3,4-difluoro-2-methoxy-phenyl)-N-[2-(1-hydroxy-1-methyl-ethyl)-4-pyridyl]-4,5-dimethyl-5-(trifluoromethyl)tetrahydrofuran-2-carboxamide]
100 to 1000		COc1ncc(NC(=O)[C@@H]2O[C@@](C)(C(F)(F)F)[C@@H](C)[C@H]2c2ccc(F)c(F)c2OC)cc1CO [Compound 247, (2R,3S,4S,5R)-3-(3,4-difluoro-2-methoxyphenyl)-N-(5-(hydroxymethyl)-6-methoxypyridin-3-yl)-4,5-dimethyl-5-(trifluoromethyl)tetrahydrofuran-2-carboxamide]
10 to 100		C[C@H]1[C@@H](c2ccc(F)c(F)c2OCCN2CCOCC2)[C@H](C(=O)Nc2cc(C(N)=O)nn2C)O[C@@]1(C)C(F)(F)F [Compound 592, 5-((2R,3S,4S,5R)-3-(3,4-difluoro-2-(2-morpholinoethoxy)phenyl)-4,5-dimethyl-5-(trifluoromethyl)tetrahydrofuran-2-carboxamido)-1-methyl-1H-pyrazole-3-carboxamide]
≥ 1000		COc1c([C@H]2[C@H](C(=O)NCC3CN(C)C(=O)CO3)O[C@@](C)(C(F)(F)F)[C@H]2C)ccc(F)c1F (stereo partly drawn) [Compound 290, (2R,3S,4S,5R)-3-(3,4-difluoro-2-methoxyphenyl)-4,5-dimethyl-N-((4-methyl-5-oxomorpholin-2-yl)methyl)-5-(trifluoromethyl)tetrahydrofuran-2-carboxamide]
≥ 1000		COc1c([C@H]2[C@H](C(=O)NC3CCN(C(C)=O)CC3)O[C@@](C)(C(F)(F)F)[C@H]2C)ccc(F)c1F [Compound 273, (2R,3S,4S,5R)-N-(1-acetylpiperidin-4-yl)-3-(3,4-difluoro-2-methoxyphenyl)-4,5-dimethyl-5-(trifluoromethyl)tetrahydrofuran-2-carboxamide]
< 10		COCc1cc(NC(=O)[C@@H]2O[C@@](C)(C(F)(F)F)[C@@H](C)[C@H]2c2ccc(F)c(F)c2OCCO)ccn1 [Compound 564, (2R,3S,4S,5R)-3-(3,4-difluoro-2-(2-hydroxyethoxy)phenyl)-N-(2-(methoxymethyl)pyridin-4-yl)-4,5-dimethyl-5-(trifluoromethyl)tetrahydrofuran-2-carboxamide]
< 10		CN=S(C)(=O)c1cc(NC(=O)[C@@H]2O[C@@](C)(C(F)(F)F)[C@@H](C)[C@H]2c2ccc(F)c(F)c2OC)ccn1 (relative stereo) [Compound 528, rel-(2R,3S,4S,5R)-3-(3,4-difluoro-2-methoxyphenyl)-N-(2-(N,S-dimethylsulfonimidoyl)pyridin-4-yl)-4,5-dimethyl-5-(trifluoromethyl)tetrahydrofuran-2-carboxamide]
100 to 1000		C[C@@H]1[C@H](c2ccc(F)c(F)c2OC(F)F)[C@@H](C(=O)Nc2ccnc(C(O)CO)c2)O[C@]1(C)C(F)(F)F (single isomer, unassigned) [Compound 81]
	≥ 1000	C[C@@H]1[C@H](c2ccc(F)c(F)c2OC(F)F)[C@@H](C(=O)Nc2ccnc(S(C)(=O)=O)c2)O[C@]1(C)C(F)(F)F (single isomer, unassigned) [Compound 86]
< 10		COc1c([C@H]2[C@H](C(=O)Nc3ccnc(CN[C@@H]4CCOC4)c3)O[C@@](C)(C(F)(F)F)[C@H]2C)ccc(F)c1F [Compound 23]
≥ 1000		COc1c([C@@H]2[C@@H](C(=O)Nc3ccc(C(N)=O)nc3)O[C@](C)(C(F)(F)F)[C@@H]2C)cccc1C(F)(F)F (stereo in doubt) [Compound 157, rel-5-((2S,3R,4R,5S)-3-(2-methoxy-3-(trifluoromethyl)phenyl)-4,5-dimethyl-5-(trifluoromethyl)tetrahydrofuran-2-carboxamido)picolinamide]
10 to 100		COCC(N)c1cc(NC(=O)[C@@H]2O[C@@](C)(C(F)(F)F)[C@@H](C)[C@H]2c2ccc(F)c(F)c2OC)c(F)cn1 (single isomer, unassigned) [Compound 422, rel-(2R*,3S*,4S*,5R*)-N-(2-(1-amino-2-methoxyethyl)-5-fluoropyridin-4-yl)-3-(3,4-difluoro-2-methoxyphenyl)-4,5-dimethyl-5-(trifluoromethyl)-tetrahydrofuran-2-carboxamide]
10 to 100		Cc1nn(C(F)F)cc1NC(=O)[C@@H]1O[C@@](C)(C(F)(F)F)[C@@H](C)[C@H]1c1ccc(F)c(F)c1CCc1cn[nH]c1 [Compound 681, (2R,3S,4S,5R)-3-(2-(2-(1H-pyrazol-4-yl)ethyl)-3,4-difluorophenyl)-N-(1-(difluoromethyl)-3-methyl-1H-pyrazol-4-yl)-4,5-dimethyl-5-(trifluoromethyl)tetrahydrofuran-2-carboxamide]
< 10		C[C@H]1[C@@H](c2ccc(F)c(F)c2OCCO)[C@H](C(=O)Nc2cccnc2)O[C@@]1(C)C(F)(F)F [Compound 575, (2R,3S,4S,5R)-3-[3,4-difluoro-2-(2-hydroxyethoxy)phenyl]-4,5-dimethyl-N-(3-pyridyl)-5-(trifluoromethyl)tetrahydrofuran-2-carboxamide]
